Assay results: patent US20070123492A1, “Analogs of lysophosphatidic acid and methods of making and using thereof” (priority 2003, published 2007)

Key:
LPA1 = biological target: T1, LPA1 (Homo sapiens, UniProt Q92633); experiment: Agonist/antagonist activity in insect cells expressing LPA1; format: cell-based
T1 construct: expressed in transfected cells; host or cells: insect cells

platelets = experiment: Platelet activation by fluorinated LPA analogues; format: cell-based; settings: preliminary results
LPA3 [1] = biological target: T2, LPA3 (Homo sapiens, UniProt Q9UBY5); experiment: Agonist/antagonist activity in insect cells expressing LPA3; format: cell-based; design: expressed in transfected cells; host or cells: insect cells
T2 sequence (Q9UBY5 1-353): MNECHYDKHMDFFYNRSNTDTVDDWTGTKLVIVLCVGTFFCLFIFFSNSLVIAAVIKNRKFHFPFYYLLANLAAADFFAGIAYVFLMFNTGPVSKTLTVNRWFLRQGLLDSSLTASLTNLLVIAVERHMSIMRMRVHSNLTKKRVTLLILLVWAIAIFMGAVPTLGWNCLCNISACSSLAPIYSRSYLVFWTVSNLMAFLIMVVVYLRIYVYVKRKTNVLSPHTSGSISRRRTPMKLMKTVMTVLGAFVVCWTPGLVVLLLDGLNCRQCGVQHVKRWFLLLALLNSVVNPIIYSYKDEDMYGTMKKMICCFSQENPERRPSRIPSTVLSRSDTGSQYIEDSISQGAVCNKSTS

(18:1) LPA pain response = experiment: (18:1) LPA pain response; format: in vivo; settings: preliminary results
LPA2 = biological target: T3, LPA2 (Homo sapiens, UniProt Q9HBW0); experiment: Agonist/antagonist activity in insect cells expressing LPA2; format: cell-based
T3 construct: expressed in transfected cells; host or cells: insect cells
T3 sequence (Q9HBW0 whole entry, species assumed): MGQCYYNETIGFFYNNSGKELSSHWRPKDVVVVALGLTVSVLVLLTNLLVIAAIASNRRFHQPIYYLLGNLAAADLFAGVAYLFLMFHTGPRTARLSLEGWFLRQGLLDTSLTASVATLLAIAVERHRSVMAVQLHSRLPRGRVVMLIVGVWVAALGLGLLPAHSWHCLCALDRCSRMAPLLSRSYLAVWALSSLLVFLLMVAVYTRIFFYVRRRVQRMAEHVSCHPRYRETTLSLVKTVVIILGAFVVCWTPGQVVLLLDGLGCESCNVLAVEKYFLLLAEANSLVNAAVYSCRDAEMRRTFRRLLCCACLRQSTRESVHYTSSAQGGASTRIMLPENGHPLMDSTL

LPA3 [2] = biological target: T2, LPA3; experiment: Potency on the LPA3 receptor; format: cell-based; settings: preliminary data
Edg7/LPA3 = Edg7/LPA3 (Homo sapiens, UniProt Q9UBY5); settings: Edg7/LPA3 as compared to Edg2/LPA1 or Edg4/LPA2; cited from earlier work
LPA receptor = settings: Xenopus oocytes; cited from earlier work

T1 sequence (Q92633 whole entry, species assumed): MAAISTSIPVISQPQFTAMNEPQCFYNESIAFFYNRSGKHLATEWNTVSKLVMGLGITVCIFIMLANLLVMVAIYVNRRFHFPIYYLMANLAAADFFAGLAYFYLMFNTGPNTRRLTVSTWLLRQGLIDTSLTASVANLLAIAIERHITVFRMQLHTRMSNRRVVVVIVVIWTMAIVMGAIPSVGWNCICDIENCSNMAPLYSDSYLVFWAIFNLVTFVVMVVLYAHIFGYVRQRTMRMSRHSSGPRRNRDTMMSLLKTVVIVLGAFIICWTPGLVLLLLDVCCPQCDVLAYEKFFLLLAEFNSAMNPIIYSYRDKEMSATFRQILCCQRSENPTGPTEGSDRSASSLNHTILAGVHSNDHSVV

With `CCCCCCCC/C=C\CCCCCCCC(=O)O[C@H](CF)COP(=O)(O)O` [Compound 1a, 1-Phospho-2(S)-(oleoyl)-3-fluorine-propane-1,2-diol] the “agonist or antagonist activity” value (LPA1) was “failed to show either significant agonist or antagonist activity”, the “ability to activate platelets” value (platelets) was “able to activate platelets” and the “agonist or antagonist activity” value (LPA3 [1]) was “failed to show either significant agonist or antagonist activity”. For the same compound, the “agonism of the (18:1) LPA pain response” value ((18:1) LPA pain response) was “partial agonists” and the “agonist or antagonist activity” value (LPA2) was “failed to show either significant agonist or antagonist activity”.

With `CCCCCCCCCCCCCCCC(=O)O[C@H](CF)COP(=O)(O)O` [Compound 1b, 1-Phospho-2(S)-(palmitoyl)-3-fluorine-propane-1,2-diol] the “agonist or antagonist activity” value (LPA1) was “failed to show either significant agonist or antagonist activity”, the “ability to activate platelets” value (platelets) was “able to activate platelets” and the “agonist or antagonist activity” value (LPA3 [1]) was “failed to show either significant agonist or antagonist activity”. For the same compound, the “agonism of the (18:1) LPA pain response” value ((18:1) LPA pain response) was “partial agonists” and the “agonist or antagonist activity” value (LPA2) was “failed to show either significant agonist or antagonist activity”.

For `CCCCCCCC/C=C\CCCCCCCC(=O)O[C@H](CF)COP(=O)(O)O` [Compound 1c, 1-Phospho-2(S)-(oleoyl)-3-fluorine-propane-1,2-diol], the “potency on LPA3 relative to 1a (R)” value (LPA3 [2]; relative to 1a (R)) was “approximately 100 fold” and the “potency relative to natural 18:1 LPA on the LPA3 receptor” value (LPA3 [2]) was “somewhat more potent”.

In the case of `CCCCCCCC/C=C\CCCCCCCC(=O)OC[C@@H](COP(O)(O)=S)OC` [OMPT], the receptor subtype selectivity (Edg7/LPA3) is listed as “preferred selectivity for Edg7/LPA3”.

For `CCCCCCCCCCCCCCCC(=O)NC(COP(=O)(O)O)C(=O)O` (centres unmarked) [compound 33], the “antagonism of LPA receptor function” value (LPA receptor) is given as “potent competitive antagonists”.

In the case of `CCCCCCCCCCCCCCCC(=O)NC(Cc1ccc(OP(=O)(O)O)cc1)C(=O)O` (centres unmarked) [compound 34], the “antagonism of LPA receptor function” value (LPA receptor) is given as “potent competitive antagonists”.

With “[1-Fluoro-3(S)-hydroxyl-4-(oleoyloxy)butyl]phosphonate [Compound 3aa]” the “potency on LPA3 relative to 3ab (R)” value (LPA3 [2]; relative to 3ab (R)) was “approximately 100 fold” and the “potency relative to natural 18:1 LPA on the LPA3 receptor” value (LPA3 [2]) was 1000 fold.
